# What was measured:
# ULK2 = target: T1, ULK2 (Homo sapiens, UniProt Q8IYT8); assay: SelectScreen LanthaScreen Binding; conditions: 1000 nM
# T1 sequence (Q8IYT8 1-1036): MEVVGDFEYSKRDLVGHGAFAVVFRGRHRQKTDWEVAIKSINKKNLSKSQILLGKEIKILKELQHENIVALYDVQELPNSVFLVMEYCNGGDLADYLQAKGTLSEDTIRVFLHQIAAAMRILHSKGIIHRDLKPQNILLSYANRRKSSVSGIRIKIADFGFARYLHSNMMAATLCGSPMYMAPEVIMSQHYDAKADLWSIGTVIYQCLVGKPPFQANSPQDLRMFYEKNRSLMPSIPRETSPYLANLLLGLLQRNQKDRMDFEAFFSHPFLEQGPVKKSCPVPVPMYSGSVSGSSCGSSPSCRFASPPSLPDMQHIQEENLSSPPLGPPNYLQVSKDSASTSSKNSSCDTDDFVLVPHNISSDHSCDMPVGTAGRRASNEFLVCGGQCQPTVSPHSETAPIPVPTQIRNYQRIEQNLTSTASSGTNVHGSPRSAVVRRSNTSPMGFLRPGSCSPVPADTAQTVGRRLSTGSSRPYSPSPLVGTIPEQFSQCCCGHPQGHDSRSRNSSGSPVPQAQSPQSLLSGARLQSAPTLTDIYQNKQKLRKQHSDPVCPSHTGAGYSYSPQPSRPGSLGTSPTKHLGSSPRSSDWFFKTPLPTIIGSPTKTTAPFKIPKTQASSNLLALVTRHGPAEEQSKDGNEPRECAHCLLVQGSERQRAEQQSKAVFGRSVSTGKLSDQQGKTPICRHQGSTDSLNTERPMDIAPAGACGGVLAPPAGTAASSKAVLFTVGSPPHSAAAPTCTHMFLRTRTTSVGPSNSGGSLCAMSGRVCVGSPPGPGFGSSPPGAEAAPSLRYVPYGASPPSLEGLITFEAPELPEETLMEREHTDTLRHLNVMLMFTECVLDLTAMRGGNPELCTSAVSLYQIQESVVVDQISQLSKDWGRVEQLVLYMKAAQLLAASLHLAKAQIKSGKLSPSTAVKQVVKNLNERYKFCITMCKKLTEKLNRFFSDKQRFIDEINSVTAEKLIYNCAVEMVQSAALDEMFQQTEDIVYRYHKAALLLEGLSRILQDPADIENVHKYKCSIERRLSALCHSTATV
# Method in brief: (§1)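 Single-point profiling, 1 μM 1938; LanthaScreen binding, Adapta or Z-LYTE read-outs; 133 protein + 7 lipid kinases.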
# TGFBR1 (ALK5) = target: T2, TGFBR1 (ALK5) (Homo sapiens, UniProt P36897); assay: SelectScreen LanthaScreen Binding; conditions: 1000 nM
# T2 sequence (P36897 34-503): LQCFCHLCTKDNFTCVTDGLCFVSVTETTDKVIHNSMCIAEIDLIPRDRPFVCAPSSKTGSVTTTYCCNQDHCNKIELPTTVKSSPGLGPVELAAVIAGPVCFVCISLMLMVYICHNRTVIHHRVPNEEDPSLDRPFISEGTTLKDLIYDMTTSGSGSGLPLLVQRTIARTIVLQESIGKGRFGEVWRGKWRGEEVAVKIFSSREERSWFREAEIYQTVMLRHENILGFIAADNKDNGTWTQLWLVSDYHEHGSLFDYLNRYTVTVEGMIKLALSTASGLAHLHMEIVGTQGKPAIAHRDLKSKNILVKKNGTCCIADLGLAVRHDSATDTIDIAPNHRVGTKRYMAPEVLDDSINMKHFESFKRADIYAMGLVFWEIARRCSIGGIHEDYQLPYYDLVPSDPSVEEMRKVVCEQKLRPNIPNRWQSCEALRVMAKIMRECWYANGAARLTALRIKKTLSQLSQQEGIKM
# Method in brief: as §1
smiles,measurement,setting,value
CCN1CCN(c2ccc(Nc3cc(Nc4cccc5c4N(C(C)=O)CC5)ccn3)cc2)CC1 [Compound 1938],% Displacement Point 1,ULK2,3%
same,% Displacement Point 2,ULK2,-0.488%
same,% Displacement mean,ULK2,1.23%
same,% Displacement Point 1,TGFBR1 (ALK5),19%
same,% Displacement Point 2,TGFBR1 (ALK5),22%
same,% Displacement mean,TGFBR1 (ALK5),21%

# Source: PMC7614683, “A small molecule PI3Kα activator for cardioprotection and neuroregeneration” (Nature, 2023)
